Measurements reported in patent US20110070294A1, “Methods for the Administration of Drugs Using Liposomes” (priority 2009, published 2011).

Tested on: bovine blood treated with heparin
Assay: Hemolysis of heparin-treated bovine blood, absorbance of supernatant at 398 nm
Settings: sample added to 1.4 mL heparinized bovine blood, room temperature, 10 minutes
Description: 100 μL of a 5 mg/mL lyophilized docetaxel preparation (50 mM sodium oleate reconstituted with 6% liposome (Doc-100), 200 μL of 5 mg/mL lyophilized docetaxel containing 50 mM sodium oleate and reconstituted with 6% liposome (Doc-200), […] of placebo containing 50 mM sodium oleate and reconstituted with 6% liposome (Placebo-100), 200 μL of placebo containing 50 mM sodium oleate and reconstituted with 6% liposome (Placebo-200), […] of Reverse osmotic deionized water (RODI (positive control)), 50 n1, of 50 mM sodium oleate (Na oleate-50) in isotonic 2.5% glycerol or 100 μL of 50 mM sodium oleate (Na oleate-100), or 200 μL of phosphate buffered saline (negative control)) was added to 1.4 mL of bovine blood treated with heparin. Doc-100 and Doc-200 were prepared using procedures similar to those in Examples 1 and 2. The samples were incubated at room temperature for 10 minutes, and then centrifuged at 8000 rpm for 20 minutes. The supernatant was used for spectral analysis. The absorbance of the samples was measured by UV-scanning the samples at wavelengths from 190 nm to 810 nm. The high absorbance at 398 nm is due to hemolysis of the blood.

In the case of `CCCCCCCC/C=C\CCCCCCCC(=O)[O-].[Na+]` [Na oleate-50, sodium oleate], the “hemolysis (absorbance at 398 nm, FIG. 1)” value is reported as “complete hemolysis”.
